Data from US20250163043A1 (TRANSTHERA SCIENCES (NANJING), INC., priority 2021, published 2025).

Experiments:
CDK9/CycT1 = CDK9/CycT1 (Homo sapiens, UniProt P50750); experiment: ADP-Glo kinase assay on CDK enzymatic activity, CDK9/CycT1; format: biochemical; conditions: 10 concentrations from 10 μM, 4-fold, 60 min room temperature
Procedure, shortened: (§1)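 Ten-point, 4-fold dilution series from 10 μM final was preincubated 10 min with kinase, then 60 min at room temperature with CDKtide substrate and ATP. ADP-Glo luminescence gave inhibition relative to 1 μM AZD4573 and 0.5% DMSO controls; IC50 from curve fitting.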

CDK2/CycA2 = CDK2/CycA2 (Homo sapiens, UniProt P24941); experiment: ADP-Glo kinase assay on CDK enzymatic activity, CDK2/CycA2; format: biochemical; conditions: 10 concentrations from 10 μM, 4-fold, 60 min room temperature
Procedure, shortened: as §1

CDK3/CycE1 = CDK3/CycE1 (Homo sapiens, UniProt Q00526); experiment: ADP-Glo kinase assay on CDK enzymatic activity, CDK3/CycE1; format: biochemical; conditions: 10 concentrations from 10 μM, 4-fold, 60 min room temperature
Procedure, shortened: as §1

[1] = tested on: MV-4-11 (human myelomonocytic leukemia cells); experiment: CCK-8 cell proliferation assay, MV-4-11; format: cell-based; conditions: MV4-11, 24 h incubation, 11 concentrations from 5000 nM, 3-fold, read-out: MV-4-11 cell proliferation IC50 (class)
Protocol: Test samples: the compounds of the present invention, having structures shown above.
MV-4-11 (human myelomonocytic leukemia cells) and NCI-H929 (human myeloma cells).
The compounds were dissolved in DMSO and diluted 3-fold in the 96-well plate to obtain stock solutions with 11 concentration gradients. Each cell was inoculated into a 96-well plate, and the diluted compound stock solution was added to the 96-well plate to obtain a series of 11 concentration gradients of compound solutions with final concentrations of 5000 nM starting and 3-fold gradient decreasing, wherein the final DMSO content was […]. There was a medium containing 1‰ DMSO in the negative control well. The treated cells were incubated at 37° C. with 5% CO2 and 95% humidity, wherein MV-4-11 were incubated for 24 h and NCI-H929 for 72 h. After incubation was completed, each well was added with 10 μL of CCK-8 reagent, incubated for 1-3 h at room temperature and placed in the microplate reader, and the absorbance was read at 450 nm.
The inhibition rate was calculated according to the following formula: […]
ODcmpd: compound absorbance; ODpositive: average value of the absorbance of positive control without compound; ODvehicle: average value of the absorbance of solvent vehicle control.
IC50 values were fitted using GraphPad 7.0 based on inhibition rates of compounds at different concentrations.

CDK5/p25NCK = CDK5/p25NCK (Homo sapiens, UniProt Q00535); experiment: ADP-Glo kinase assay on CDK enzymatic activity, CDK5/p25NCK; format: biochemical; conditions: 10 concentrations from 10 μM, 4-fold, 60 min room temperature
Procedure, shortened: as §1

CDK1/CycE1 = CDK1/CycE1 (Homo sapiens, UniProt P06493); experiment: ADP-Glo kinase assay on CDK enzymatic activity, CDK1/CycE1; format: biochemical; conditions: ADP-Glo; 10 concentrations from 10 μM, 4-fold; 60 min room temperature; read-out: CDK1/CycE1/nM (IC50)
Procedure, shortened: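 Compounds in 10-point 4-fold dilutions from 10 μM final, preincubated 10 min with kinase, then substrate/ATP added; 60 min reaction at room temperature. ADP-Glo luminescence read.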

CDK1/CycE1, sequence (P06493 whole entry, species assumed): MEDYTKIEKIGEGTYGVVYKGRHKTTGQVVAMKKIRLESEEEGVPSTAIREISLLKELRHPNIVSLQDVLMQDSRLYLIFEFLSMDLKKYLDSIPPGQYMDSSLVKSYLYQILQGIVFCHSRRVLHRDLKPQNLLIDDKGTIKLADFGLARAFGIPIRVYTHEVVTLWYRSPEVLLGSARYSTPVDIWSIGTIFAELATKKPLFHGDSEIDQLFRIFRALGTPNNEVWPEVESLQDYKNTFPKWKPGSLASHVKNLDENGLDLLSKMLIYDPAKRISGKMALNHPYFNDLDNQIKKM
CDK1/CycE1, sequence (P24864 whole entry partner, species assumed): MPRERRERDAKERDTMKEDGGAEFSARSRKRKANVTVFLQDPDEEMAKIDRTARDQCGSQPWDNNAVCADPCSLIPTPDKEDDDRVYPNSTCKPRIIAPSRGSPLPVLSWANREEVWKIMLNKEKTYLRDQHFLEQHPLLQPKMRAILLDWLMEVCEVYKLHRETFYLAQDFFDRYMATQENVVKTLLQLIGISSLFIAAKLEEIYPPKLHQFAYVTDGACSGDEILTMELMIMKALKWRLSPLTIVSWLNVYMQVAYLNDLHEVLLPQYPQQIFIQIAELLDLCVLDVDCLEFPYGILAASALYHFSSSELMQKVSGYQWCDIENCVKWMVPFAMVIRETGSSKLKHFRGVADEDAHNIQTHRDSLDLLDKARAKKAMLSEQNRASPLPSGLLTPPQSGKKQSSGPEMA
CDK9/CycT1, sequence (P50750 whole entry): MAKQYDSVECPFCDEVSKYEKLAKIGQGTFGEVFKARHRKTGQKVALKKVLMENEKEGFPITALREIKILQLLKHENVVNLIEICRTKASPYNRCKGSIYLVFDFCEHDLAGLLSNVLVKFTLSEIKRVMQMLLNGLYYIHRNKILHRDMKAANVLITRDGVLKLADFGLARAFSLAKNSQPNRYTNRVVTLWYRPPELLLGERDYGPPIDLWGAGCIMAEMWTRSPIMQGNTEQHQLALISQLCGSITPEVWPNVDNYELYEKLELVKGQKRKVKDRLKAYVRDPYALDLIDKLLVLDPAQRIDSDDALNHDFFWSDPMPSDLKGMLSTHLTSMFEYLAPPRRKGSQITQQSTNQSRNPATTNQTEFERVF
CDK9/CycT1, sequence (O60563 whole entry partner): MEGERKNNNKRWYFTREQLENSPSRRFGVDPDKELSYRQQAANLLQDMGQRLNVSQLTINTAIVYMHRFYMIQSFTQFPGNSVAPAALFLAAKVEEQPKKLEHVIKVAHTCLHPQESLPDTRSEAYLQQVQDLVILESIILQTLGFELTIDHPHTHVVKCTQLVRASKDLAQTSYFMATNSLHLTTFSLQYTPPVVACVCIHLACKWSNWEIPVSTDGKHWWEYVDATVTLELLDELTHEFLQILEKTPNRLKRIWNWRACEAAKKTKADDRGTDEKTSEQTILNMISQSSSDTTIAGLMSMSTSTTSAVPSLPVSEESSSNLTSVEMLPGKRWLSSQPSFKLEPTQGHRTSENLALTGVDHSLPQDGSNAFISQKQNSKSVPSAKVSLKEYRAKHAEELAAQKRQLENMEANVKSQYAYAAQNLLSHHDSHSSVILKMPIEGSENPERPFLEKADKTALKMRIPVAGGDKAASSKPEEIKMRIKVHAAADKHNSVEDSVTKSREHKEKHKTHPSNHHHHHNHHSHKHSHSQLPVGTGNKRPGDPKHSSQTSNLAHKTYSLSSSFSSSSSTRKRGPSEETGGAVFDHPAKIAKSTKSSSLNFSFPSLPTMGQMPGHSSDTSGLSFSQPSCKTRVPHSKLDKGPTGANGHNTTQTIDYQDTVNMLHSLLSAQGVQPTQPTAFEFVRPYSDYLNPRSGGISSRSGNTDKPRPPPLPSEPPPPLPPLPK
CDK5/p25NCK, sequence (Q00535 whole entry, species assumed): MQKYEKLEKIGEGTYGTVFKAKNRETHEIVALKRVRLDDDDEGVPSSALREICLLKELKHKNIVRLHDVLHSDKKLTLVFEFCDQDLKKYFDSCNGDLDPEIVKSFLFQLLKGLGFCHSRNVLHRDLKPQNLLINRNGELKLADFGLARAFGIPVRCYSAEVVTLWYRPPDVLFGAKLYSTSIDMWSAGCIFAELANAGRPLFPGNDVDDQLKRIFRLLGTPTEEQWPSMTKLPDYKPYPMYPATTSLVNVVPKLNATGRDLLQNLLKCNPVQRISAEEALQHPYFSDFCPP
CDK5/p25NCK, sequence (Q15078 99-307 partner limits assumed, species assumed): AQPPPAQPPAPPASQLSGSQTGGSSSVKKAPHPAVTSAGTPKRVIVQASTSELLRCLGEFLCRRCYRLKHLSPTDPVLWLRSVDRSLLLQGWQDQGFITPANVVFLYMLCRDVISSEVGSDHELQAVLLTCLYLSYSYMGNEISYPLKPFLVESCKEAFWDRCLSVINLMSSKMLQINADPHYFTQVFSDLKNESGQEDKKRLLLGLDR
CDK3/CycE1, sequence (Q00526 whole entry, species assumed): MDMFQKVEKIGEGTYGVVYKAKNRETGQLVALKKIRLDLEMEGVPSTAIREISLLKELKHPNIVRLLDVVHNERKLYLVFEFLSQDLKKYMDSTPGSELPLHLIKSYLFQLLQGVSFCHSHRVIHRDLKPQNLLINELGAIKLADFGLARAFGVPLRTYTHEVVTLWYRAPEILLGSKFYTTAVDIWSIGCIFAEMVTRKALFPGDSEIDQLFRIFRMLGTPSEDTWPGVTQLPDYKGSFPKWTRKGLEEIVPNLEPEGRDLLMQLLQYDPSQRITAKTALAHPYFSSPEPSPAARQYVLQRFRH
CDK3/CycE1, sequence (P24864 whole entry partner, species assumed): as the sequence (P24864 whole entry partner, species assumed) above

SMILES	IC50 (CDK9/CycT1) [nM]	IC50 (CDK2/CycA2) [nM]	IC50 (CDK3/CycE1) [nM]	IC50 [1] [µM]	IC50 (CDK5/p25NCK) [nM]	IC50 (CDK1/CycE1) [nM]
CC(=O)N[C@@H]1CCC[C@H](C(=O)Nc2cc3c(NC(C)(C)C)nc(C#N)cc3cn2)C1 [Compound 15, (1S,3R)-3-acetamido-N-(5-(tert-butylamino)-7-cyano-2,6-naphthyridin-3-yl)cyclohexane-1-carboxamide]	1	182	273	0.4 to 1	770	–
CC(=O)N[C@@H]1CCC[C@H](C(=O)Nc2cc3c(NC4CC4)nc(C#N)cc3cn2)C1 [Compound 16, (1S,3R)-3-acetamido-N-(7-cyano-5-(cyclopropylamino)-2,6-naphthyridin-3-yl)cyclohexane-1-carboxamide]	20	1460	951	> 1	2500	–
CC(=O)N[C@@H]1CCC[C@H](C(=O)Nc2cc3c(NC4(C)CC4)nc(C#N)cc3cn2)C1 [Compound 17, (1S,3R)-3-acetamido-N-(7-cyano-5-((1-methylcyclopropyl)amino)-2,6-naphthyridin-3-yl)cyclohexane-1-carboxamide]	4	279	750	0.4 to 1	664	–
CC(=O)N[C@@H]1CCC[C@H](C(=O)Nc2cc3c(NC(CCO)CCO)nc(C#N)cc3cn2)C1 [Compound 18, (1S,3R)-3-acetamido-N-(7-cyano-5-((1,5-dihydroxypentan-3-yl)amino)-2,6-naphthyridin-3-yl)cyclohexane-1-carboxamide]	15	3370	> 10000	> 1	> 10000	–
CC(=O)N[C@@H]1CCC[C@H](C(=O)Nc2cc3c(N4CC[C@@H](O)C4)nc(C#N)cc3cn2)C1 [Compound 19, (1S,3R)-3-acetamido-N-(7-cyano-5-((R)-3-hydroxypyrrolidin-1-yl)-2,6-naphthyridin-3-yl)cyclohexane-1-carboxamide]	26	2370	1470	> 1	6080	–
CC(=O)N[C@@H]1CCC[C@H](C(=O)Nc2cc3c(N4CC[C@@H](N)C4)nc(C#N)cc3cn2)C1 [Compound 20, (1S,3R)-3-acetamido-N-(5-((R)-3-aminopyrrolidin-1-yl)-7-cyano-2,6-naphthyridin-3-yl)cyclohexane-1-carboxamide]	11	2150	1750	> 1	4320	–
CC(=O)N[C@@H]1CCC[C@H](C(=O)Nc2cc3c(N4CC[C@@](C)(O)C4)nc(C#N)cc3cn2)C1 [Compound 22, (1S,3R)-3-acetamido-N-(7-cyano-5-((R)-3-hydroxy-3-methylpyrrolidin-1-yl)-2,6-naphthyridin-3-yl)cyclohexane-1-carboxamide]	17	4510	1910	0.4 to 1	> 10000	–
CC(=O)N[C@@H]1CCC[C@H](C(=O)Nc2cc3c(N4CCC(F)(F)CC4)nc(C#N)cc3cn2)C1 [Compound 23, (1S,3R)-3-acetamido-N-(7-cyano-5-(4,4-difluoropiperidin-1-yl)-2,6-naphthyridin-3-yl)cyclohexane-1-carboxamide]	38	3870	5650	> 1	> 10000	–
CC(=O)N[C@H]1CCC[C@H](C(=O)Nc2cc3c(NC(C)C)nc(C#N)cc3cn2)C1 [Compound 25, (1S,3S)-3-acetamido-N-(7-cyano-5-(isopropylamino)-2,6-naphthyridin-3-yl)cyclohexane-1-carboxamide]	12	521	602	0.4 to 1	1210	–
CC(C)Nc1nc(C#N)cc2cnc(NC(=O)[C@H]3CCC[C@H](N)C3)cc12 [Compound 27, (1S,3S)-3-amino-N-(7-cyano-5-(isopropylamino)-2,6-naphthyridin-3-yl)cyclohexane-1-carboxamide]	51	2520	1630	0.4 to 1	3960	–
CC(C)Nc1nc(C#N)cc2cnc(N[C@H]3CCNC3)cc12 [Compound 31, (S)-1-(isopropylamino)-7-(pyrrolidin-3-ylamino)-2,6-naphthyridine-3-carbonitrile]	4	594	1300	0.4 to 1	1480	–
CN[C@@H]1CC[C@H](Nc2cc3c(NC(C)C)nc(C#N)cc3cn2)C1 [Compound 32, 1-(isopropylamino)-7-(((1S,3R)-3-(methylamino)cyclopentyl)amino)-2,6-naphthyridine-3-carbonitrile]	7	1080	2050	0.4 to 1	1580	–
CC(C)Nc1nc(C#N)cc2cnc(N[C@H]3CC[C@@H](O)C3)cc12 [Compound 36, 7-(((1S,3R)-3-hydroxycyclopentyl)amino)-1-(isopropylamino)-2,6-naphthyridine-3-carbonitrile]	1	4	23	0.4 to 1	7	–
CC(C)Nc1nc(C#N)cc2cnc(N[C@H]3CCC[C@@H](O)C3)cc12 [Compound 41, 7-(((1S,3R)-3-hydroxycyclohexyl)amino)-1-(isopropylamino)-2,6-naphthyridine-3-carbonitrile]	6	–	90	> 1	–	–
CC(C)Nc1nc(C#N)cc2cnc(N[C@H]3CCC(=O)NC3)nc12 [Compound 106, (S)-8-(isopropylamino)-2-((6-oxopiperidin-3-yl)amino)pyrido[3,4-d]pyrimidine-6-carbonitrile]	4	–	29	0.4 to 1	–	26
N#Cc1cc2cnc(N[C@H]3CCCNC3)cc2c(C2CCCCC2)n1 [Compound 193, (S)-1-cyclohexyl-7-(piperidin-3-ylamino)-2,6-naphthyridine-3-carbonitrile]	5	679	–	0.4 to 1	–	398
CC(C)Oc1nc(C#N)cc2cnc(N[C@H]3C[C@@H](N)C3)cc12 [Compound 195, 7-(((1s,3s)-3-aminocyclobutyl)amino)-1-isopropoxy-2,6-naphthyridine-3-carbonitrile]	2	540	–	0.4 to 1	–	14
CC(C)Nc1nc(C#N)cc2cnc(N[C@@H]3CCCCNC3)nc12 [Compound C5, (R)-2-(azepan-3-ylamino)-8-(isopropylamino)pyrido[3,4-d]pyrimidine-6-carbonitrile]	50	–	–	0.4 to 1	–	–
CC(C)Nc1nc(C#N)cc2cnc(N[C@]3(C)C[C@@H](O)C3)nc12 [Compound C10, 2-(((1r,3r)-3-hydroxy-1-methylcyclobutyl)amino)-8-(isopropylamino)pyrido[3,4-d]pyrimidine-6-carbonitrile]	8	–	–	> 1	–	–
CC(C)(C)Nc1nc(C(N)=O)cc2cnc(N[C@H]3C[C@H](N)C3)nc12 [Compound C19, 2-(((1r,3r)-3-aminocyclobutyl)amino)-8-(tert-butylamino)pyrido[3,4-d]pyrimidine-6-carboxamide]	10	–	–	0.4 to 1	–	–
CC(C)Nc1nc(C#N)cc2cnc(N[C@]3(C)C[C@@H](N)C3)nc12 [Compound C27, 2-(((1r,3r)-3-amino-1-methylcyclobutyl)amino)-8-(isopropylamino)pyrido[3,4-d]pyrimidine-6-carbonitrile]	19	–	–	> 1	–	–
CC(C)Nc1nc(C#N)cc2cnc(N[C@H]3C[C@@H](CO)C3)nc12 [Compound C29, 2-(((1s,3s)-3-(hydroxymethyl)cyclobutyl)amino)-8-(isopropylamino)pyrido[3,4-d]pyrimidine-6-carbonitrile]	3	35	–	0.4 to 1	–	51
CC(=O)N1CCN([C@H]2C[C@@H](Nc3ncc4cc(C#N)nc(NC(C)C)c4n3)C2)CC1 [Compound C33, 2-(((1s,3s)-3-(4-acetylpiperazin-1-yl)cyclobutyl)amino)-8-(isopropylamino)pyrido[3,4-d]pyrimidine-6-carbonitrile]	19	–	–	> 1	–	–
